One may read the IC50 as the concentration needed to halve the response being measured. High values mean weaker potency, low ones greater potency.

The target of this assay is T1, EZH2 within the PRC2 complex (Homo sapiens, UniProt Q15910).
T1 construct: FLAG; made in house; host or cells: Sf9 cells
Briefly: EZH2 methyltransferase scintillation proximity assay (SPA). The format is biochemical. The conditions noted are these: Human PRC2 5 member complex (FLAG-EZH2, EED, SUZ12, RbAp48, AEBP2), biotinylated histone H3K27 peptide, 3H-SAM, 60 min room temperature; ≤10 nM approaches limit of detection. As for the experimental part:
Compounds contained herein were evaluated for their ability to inhibit the methyltransferase activity of EZH2 within the PRC2 complex. Human PRC2 complex was prepared by co-expressing each of the 5 member proteins (FLAG-EZH2, EED, SUZ12, RbAp48, AEBP2) in Sf9 cells followed by co-purification. Enzyme activity was measured in a scintillation proximity assay (SPA) where a tritiated methyl group is transferred from 3H-SAM to a lysine residue on a biotinylated, unmethylated peptide substrate derived from histone H3. The peptides were captured on streptavidin-coated SPA beads and the resulting signal was read on a ViewLux plate reader.
• 1. Prepare 10 mM stock of compounds from solid in 100% DMSO. • 2. Set up an 11-point serial dilution (1:4 dilution, top concentration 10 mM) in 100% DMSO for each test compound in a 384 well plate leaving columns 6 and 18 for DMSO controls. • 3. Dispense 10 nL of compound from the dilution plate into reaction plates (Corning, 384-well polystyrene NBS, Cat# 3673).
• 1. 1× Base Buffer, 50 mM Tris-HCl, pH 8, 2 mM MgCl2: Per 1 L of base buffer, combine 1 M Tris-HCl, pH 8 (50 mL), 1 M MgCl2 (2 mL), and distilled water (948 mL). • 2. 1× Assay Buffer: Per 10 mL of 1× Assay Buffer, combine 1× Base Buffer (9.96 mL), 1 M DTT (40 uL), and 10% Tween-20 (1 uL) to provide a final concentration of 50 mM Tris-HCl, pH 8, 2 mM MgCl2, 4 mM DTT, 0.001% Tween-20. • 3. 2× Enzyme Solution: Per 10 mL of 2× Enzyme Solution, combine 1× Assay Buffer (9.99 mL) and 3.24 uM EZH2 5 member complex (6.17 uL) to provide a final enzyme concentration of 1 nM. • 4. SPA Bead Solution: Per 1 mL of SPA Bead Solution, combine Streptavidin coated SPA beads (PerkinElmer, Cat #RPNQ0261, 40 mg) and 1× Assay Buffer (1 mL) to provide a working concentration of 40 mg/mL. • 5. 2× Substrate Solution: Per 10 mL of 2× Substrate Solution, combine 40 mg/mL SPA Bead Solution (375 uL), 1 mM biotinylated histone H3K27 peptide (200 uL), 12.5 uM 3H-SAM (240 uL; 1 mCi/mL), 1 mM cold SAM (57 uL), and 1× Assay Buffer (9.13 mL) to provide a final concentration of 0.75 mg/mL SPA Bead Solution, 10 uM biotinylated histone H3K27 peptide, 0.15 uM 3H-SAM (˜12 uCi/mL 3H-SAM), and 2.85 uM cold SAM. • 6. 2.67× Quench Solution: Per 10 mL of 2.67× Quench Solution, combine 1 Assay Buffer (9.73 mL) and 10 mM cold SAM (267 uL) to provide a final concentration of 100 uM cold SAM.
• 1. Stamp 10 nL/well of 1000× Compound to test wells (as noted above). • 2. Stamp 10 nL/well of 100% DMSO to columns 6 & 18 (high and low controls, respectively).
• 1. Dispense 5 uL/well of 1× Assay Buffer to column 18 (low control reactions). • 2. Dispense 5 uL/well of 2× Substrate Solution to columns 1-24 (note: substrate solution should be mixed to ensure homogeneous bead suspension before dispensing into matrix reservoir). • 3. Dispense 5 uL/well of 2× Enzyme Solution to columns 1-17, 19-24. • 4. Incubate the reaction for 60 min at room temperature.
• 1. Dispense 6 uL/well of the 2.67× Quench Solution to columns 1-24. • 2. Seal assay plates and spin for ˜1 min at 500 rpm. • 3. Dark adapt plates in the ViewLux instrument for 15-60 min. Read plates • 1. Read the assay plates on the Viewlux Plate Reader utilizing the 613 nm emission filter or clear filter (300 s exposure). • Reagent addition can be done manually or with automated liquid handler.
Percent inhibition was calculated relative to the DMSO control for each compound concentration and the resulting values were fit using standard IC50 fitting parameters within the ABASE data fitting software package.

T1 sequence (Q15910 whole entry): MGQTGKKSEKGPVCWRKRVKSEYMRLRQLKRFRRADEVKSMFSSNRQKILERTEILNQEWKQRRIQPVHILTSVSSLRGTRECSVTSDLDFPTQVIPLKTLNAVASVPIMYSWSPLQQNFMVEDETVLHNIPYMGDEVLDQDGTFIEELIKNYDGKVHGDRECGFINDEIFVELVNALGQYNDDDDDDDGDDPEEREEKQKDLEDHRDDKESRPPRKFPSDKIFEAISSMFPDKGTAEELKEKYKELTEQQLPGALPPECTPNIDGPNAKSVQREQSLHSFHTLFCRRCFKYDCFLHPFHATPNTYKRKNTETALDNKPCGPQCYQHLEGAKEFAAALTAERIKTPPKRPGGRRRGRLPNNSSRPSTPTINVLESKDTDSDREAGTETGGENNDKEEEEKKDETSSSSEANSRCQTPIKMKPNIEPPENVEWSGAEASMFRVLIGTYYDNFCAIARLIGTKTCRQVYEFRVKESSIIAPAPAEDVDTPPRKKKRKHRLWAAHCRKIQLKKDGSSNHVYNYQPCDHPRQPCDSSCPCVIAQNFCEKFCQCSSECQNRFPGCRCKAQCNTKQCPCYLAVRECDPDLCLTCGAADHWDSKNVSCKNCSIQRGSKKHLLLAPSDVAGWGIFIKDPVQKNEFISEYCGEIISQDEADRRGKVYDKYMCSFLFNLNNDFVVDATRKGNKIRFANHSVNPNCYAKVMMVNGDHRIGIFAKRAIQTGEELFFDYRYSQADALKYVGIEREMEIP
T1 sequence (O75530 whole entry partner): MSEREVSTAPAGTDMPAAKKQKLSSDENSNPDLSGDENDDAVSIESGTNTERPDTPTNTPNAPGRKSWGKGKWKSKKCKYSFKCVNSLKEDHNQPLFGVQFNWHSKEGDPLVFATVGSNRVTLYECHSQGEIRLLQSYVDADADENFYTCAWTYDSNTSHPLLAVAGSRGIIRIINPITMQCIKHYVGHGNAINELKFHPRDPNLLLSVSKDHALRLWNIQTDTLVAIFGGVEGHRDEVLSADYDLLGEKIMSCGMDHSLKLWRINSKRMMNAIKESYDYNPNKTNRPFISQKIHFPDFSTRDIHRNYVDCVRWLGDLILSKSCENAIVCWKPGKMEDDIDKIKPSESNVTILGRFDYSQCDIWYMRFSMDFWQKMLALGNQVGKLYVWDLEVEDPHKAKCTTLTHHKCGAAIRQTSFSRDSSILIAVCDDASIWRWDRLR
T1 sequence (Q15022 whole entry partner): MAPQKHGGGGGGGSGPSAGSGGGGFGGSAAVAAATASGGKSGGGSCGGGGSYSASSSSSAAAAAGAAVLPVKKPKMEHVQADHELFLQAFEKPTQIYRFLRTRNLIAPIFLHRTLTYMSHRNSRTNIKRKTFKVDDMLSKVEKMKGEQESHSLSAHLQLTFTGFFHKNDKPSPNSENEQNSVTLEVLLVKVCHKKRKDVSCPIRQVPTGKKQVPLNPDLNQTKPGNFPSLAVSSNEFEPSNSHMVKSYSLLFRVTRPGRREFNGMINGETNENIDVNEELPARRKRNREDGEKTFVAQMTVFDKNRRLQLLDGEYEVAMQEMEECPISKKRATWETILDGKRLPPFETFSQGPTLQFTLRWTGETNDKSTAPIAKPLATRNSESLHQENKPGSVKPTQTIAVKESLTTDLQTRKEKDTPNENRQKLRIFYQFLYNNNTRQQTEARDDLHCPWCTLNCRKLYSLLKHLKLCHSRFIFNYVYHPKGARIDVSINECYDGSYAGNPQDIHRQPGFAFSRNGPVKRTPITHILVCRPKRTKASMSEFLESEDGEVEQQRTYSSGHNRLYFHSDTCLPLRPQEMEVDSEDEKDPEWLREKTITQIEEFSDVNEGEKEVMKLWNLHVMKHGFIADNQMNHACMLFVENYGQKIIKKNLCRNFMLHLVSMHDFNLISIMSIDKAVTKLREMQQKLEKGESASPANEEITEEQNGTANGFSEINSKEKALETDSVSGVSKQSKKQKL
T1 sequence (Q09028 whole entry partner): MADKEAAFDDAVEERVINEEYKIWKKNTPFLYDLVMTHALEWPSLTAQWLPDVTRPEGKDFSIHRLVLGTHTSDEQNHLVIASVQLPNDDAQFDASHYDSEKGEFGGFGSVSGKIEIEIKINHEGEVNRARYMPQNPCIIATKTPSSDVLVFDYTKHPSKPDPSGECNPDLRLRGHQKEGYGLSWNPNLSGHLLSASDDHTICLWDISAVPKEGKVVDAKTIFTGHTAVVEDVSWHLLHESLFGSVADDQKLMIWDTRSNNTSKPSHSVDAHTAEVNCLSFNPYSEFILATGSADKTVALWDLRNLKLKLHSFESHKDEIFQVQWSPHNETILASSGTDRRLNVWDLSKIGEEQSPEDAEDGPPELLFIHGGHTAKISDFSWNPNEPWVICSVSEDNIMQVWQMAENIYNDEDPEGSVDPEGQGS
T1 sequence (Q6ZN18 whole entry partner): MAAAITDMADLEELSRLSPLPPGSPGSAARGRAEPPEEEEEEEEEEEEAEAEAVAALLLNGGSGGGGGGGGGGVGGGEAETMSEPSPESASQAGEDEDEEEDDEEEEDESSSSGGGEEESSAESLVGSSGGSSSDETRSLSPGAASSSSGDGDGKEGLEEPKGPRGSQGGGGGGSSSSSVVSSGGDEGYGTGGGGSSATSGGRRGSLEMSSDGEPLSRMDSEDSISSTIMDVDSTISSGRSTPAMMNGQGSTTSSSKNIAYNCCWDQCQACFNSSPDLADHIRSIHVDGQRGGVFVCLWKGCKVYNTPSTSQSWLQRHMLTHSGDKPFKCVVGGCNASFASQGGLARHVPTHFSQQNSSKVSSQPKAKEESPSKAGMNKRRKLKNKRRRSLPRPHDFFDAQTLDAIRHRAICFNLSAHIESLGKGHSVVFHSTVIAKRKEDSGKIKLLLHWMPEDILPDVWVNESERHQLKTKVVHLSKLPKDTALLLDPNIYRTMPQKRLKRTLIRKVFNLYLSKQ

Consider `Cc1cc(C)c(CN2CCCc3sc([C@H](C)C4CCN(CC5CCCCC5)CC4)c(C)c3C2=O)c(=O)[nH]1` [Example 13, (R)-2-(1-(1-(cyclohexylmethyl)piperidin-4-yl)ethyl)-5-((4,6-dimethyl-2-oxo-1,2-dihydropyridin-3-yl)methyl)-3-methyl-5,6,7,8-tetrahydro-4H-thieno[3,2-c]azepin-4-one], for which the IC50 was at most 10 nM. The compound `CC[C@@H](c1sc2c(c1C)C(=O)N(Cc1c(C)cc(C)[nH]c1=O)CC2)C1CCN(Cc2ccncc2)CC1` [Example 3, (R)-5-((4,6-Dimethyl-2-oxo-1,2-dihydropyridin-3-yl)methyl)-3-methyl-2-(1-(1-(pyridin-4-ylmethyl)piperidin-4-yl)propyl)-6,7-dihydrothieno[3,2-c]pyridin-4(5H)-one] had a concentration for half-maximal inhibition (IC50) of at most 10 nM. Compound `COc1cc(CN2CCC([C@@H](C)c3sc4c(c3C)C(=O)N(Cc3c(C)cc(C)[nH]c3=O)CC4)CC2)ccn1` [Example 11, (R)-5-((4,6-Dimethyl-2-oxo-1,2-dihydropyridin-3-yl)methyl)-2-(1-(1-((2-methoxypyridin-4-yl)methyl)piperidin-4-yl)ethyl)-3-methyl-6,7-dihydrothieno[3,2-c]pyridin-4(5H)-one] returned an IC50 of at most 10 nM. Then `CC[C@@H](c1sc2c(c1C)C(=O)N(Cc1c(C)cc(C)[nH]c1=O)CC2)C1CCN(Cc2ccc(Cl)cn2)CC1` [Example 4, (R)-2-(1-(1-((5-Chloropyridin-2-yl)methyl)piperidin-4-yl)propyl)-5-((4,6-dimethyl-2-oxo-1,2-dihydropyridin-3-yl)methyl)-3-methyl-6,7-dihydrothieno[3,2-c]pyridin-4(5H)-one], with at most 10 nM; and `COc1cc(CN2CCC([C@@H](C)c3sc4c(c3C)C(=O)N(Cc3c(C)cc(C)[nH]c3=O)CCC4)CC2)ccn1` [Example 7, (R)-5-((4,6-Dimethyl-2-oxo-1,2-dihydropyridin-3-yl)methyl)-2-(1-(1-((2-methoxypyridin-4-yl)methyl)piperidin-4-yl)ethyl)-3-methyl-5,6,7,8-tetrahydro-4H-thieno[3,2-c]azepin-4-one], with at most 10 nM.

With `Cc1cc(C)c(CN2CCCc3sc([C@H](C)C4CCN(Cc5ccc(Cl)cn5)CC4)c(C)c3C2=O)c(=O)[nH]1` [Example 8], the IC50 is at most 10 nM. Compound `Cc1cccc(CN2CCC([C@@H](C)c3sc4c(c3C)C(=O)N(Cc3c(C)cc(C)[nH]c3=O)CCC4)CC2)n1` [Example 9, (R)-5-((4,6-Dimethyl-2-oxo-1,2-dihydropyridin-3-yl)methyl)-3-methyl-2-(1-(1-((6-methylpyridin-2-yl)methyl)piperidin-4-yl)ethyl)-5,6,7,8-tetrahydro-4H-thieno[3,2-c]azepin-4-one] gave an IC50 of at most 10 nM.

Turning to `Cc1cc(C)c(CN2CCCc3sc([C@H](C)C4CCN(CC5(C)CCCCC5)CC4)c(C)c3C2=O)c(=O)[nH]1` [Example 14, (R)-5-((4,6-Dimethyl-2-oxo-1,2-dihydropyridin-3-yl)methyl)-3-methyl-2-(1-(1-((1-methylcyclohexyl)methyl)piperidin-4-yl)ethyl)-5,6,7,8-tetrahydro-4H-thieno[3,2-c]azepin-4-one], the IC50 was at most 10 nM. The compound `Cc1cc(C)c(CN2CCCc3sc([C@H](C)C4CCN(Cc5ccccc5)CC4)c(C)c3C2=O)c(=O)[nH]1` [Example 10, (R)-2-(1-(1-Benzylpiperidin-4-yl)ethyl)-5-((4,6-dimethyl-2-oxo-1,2-dihydropyridin-3-yl)methyl)-3-methyl-5,6,7,8-tetrahydro-4H-thieno[3,2-c]azepin-4-one] gave an IC50 of at most 10 nM. Then `CC[C@@H](c1sc2c(c1C)C(=O)N(Cc1c(C)cc(C)[nH]c1=O)CC2)C1CCN(Cc2ccccn2)CC1` [Example 1, (R)-5-((4,6-dimethyl-2-oxo-1,2-dihydropyridin-3-yl)methyl)-3-methyl-2-(1-(1-(pyridin-2-ylmethyl)piperidin-4-yl)propyl)-6,7-dihydrothieno[3,2-c]pyridin-4(5H)-one], with at most 10 nM. Then `COc1cccc(CN2CCC([C@@H](C)c3sc4c(c3C)C(=O)N(Cc3c(C)cc(C)[nH]c3=O)CCC4)CC2)n1` [Example 12, (R)-5-((4,6-Dimethyl-2-oxo-1,2-dihydropyridin-3-yl)methyl)-2-(1-(1-((6-methoxypyridin-2-yl)methyl)piperidin-4-yl)ethyl)-3-methyl-5,6,7,8-tetrahydro-4H-thieno[3,2-c]azepin-4-one], with at most 10 nM.

The compound `CCC(=C1CCN(Cc2ccnc(OC)c2)CC1)c1scc(C(=O)NCc2c(C)cc(C)[nH]c2=O)c1C` [Example 5, N-((4,6-Dimethyl-2-oxo-1,2-dihydropyridin-3-yl)methyl)-5-(1-(1-((2-methoxypyridin-4-yl)methyl)piperidin-4-ylidene)propyl)-4-methylthiophene-3-carboxamide] registered a 50% inhibitory concentration (IC50) of at most 10 nM.

The compound `CC[C@@H](c1sc2c(c1C)C(=O)N(Cc1c(C)cc(C)[nH]c1=O)CC2)C1CCN(Cc2ccccc2)CC1` [Example 2, (R)-2-(1-(1-Benzylpiperidin-4-yl)propyl)-5-((4,6-dimethyl-2-oxo-1,2-dihydropyridin-3-yl)methyl)-3-methyl-6,7-dihydrothieno[3,2-c]pyridin-4(5H)-one] yielded an IC50 of at most 10 nM. The value for `Cc1cc(C)c(CN2CCCc3sc([C@H](C)C4CCN(Cc5ccccn5)CC4)c(C)c3C2=O)c(=O)[nH]1` [Example 6, (R)-5-((4,6-Dimethyl-2-oxo-1,2-dihydropyridin-3-yl)methyl)-3-methyl-2-(1-(1-(pyridin-2-ylmethyl)piperidin-4-yl)ethyl)-5,6,7,8-tetrahydro-4H-thieno[3,2-c]azepin-4-one] was at most 10 nM.

Values taken from patent US20180162845A1, “ENHANCER OF ZESTE HOMOLOG 2 INHIBITORS” (GLAXOSMITHKLINE INTELLECTUAL PROPERTY (NO.2) LIMITED, priority 2015, published 2018).
